Where two headings read alike, the source gives them in different places.

Test [1] has as its target T1, 5-HT2B receptor (Homo sapiens (Human), UniProt P41595). The test is described as follows: DOI radioligand binding assay, 5-HT2B. The note with it: [125I]DOI competition, HEK293 cell membranes. The protocol:
(§1) For the compounds of Table A, the following procedure was used. HEK293 cells stably expressing recombinant 5-HT2 receptors were harvested, suspended in ice-cold phosphate buffered saline, pH 7.4 (PBS), and then centrifuged at 48,000 g for 20 min at 4° C. The resulting cell pellet was then re-suspended in wash buffer containing 20 mM HEPES, pH 7.4 and 0.1 mM EDTA, homogenized on ice using a Brinkman Polytron, and centrifuged (48,000 g for 20 min at 4° C.). The pellet was then resuspended in 20 mM HEPES, pH 7.4, homogenized on ice, and centrifuged (48,000 g for 20 min at 4° C.). Crude membrane pellets were stored at −80° C. until used for radioligand binding assays.
(§2) For the compounds of Table A, the following procedure was used. […] Experiments comprised addition of 95 μL of assay buffer (20 mM HEPES, pH 7.4, 10 mM MgCl2), 50 μL of membranes, 50 μL of radioligand stock, and 5 μL of test compound diluted in assay buffer to 96-well microtiter plates, which were then incubated for 1 h at room temperature. Assay incubations were terminated by rapid filtration through PerkinElmer F/C filtration plates under reduced pressure using a 96-well Packard filtration apparatus, followed by washing three times with ice cold assay buffer. Plates were then dried at 45° C. for a minimum of 2 h. Finally, 25 μL of BetaScint™ scintillation cocktail was added to each well and the plates were counted in a Packard TopCount® scintillation counter. In each competition study, test compounds were dosed at ten concentrations with triplicate determinations at each test concentration.

For test [2], the target named is T2, 5-HT2A receptor (Homo sapiens (Human), UniProt P28223). The test is described as follows: DOI radioligand binding assay, 5-HT2A. The following applies: [125I]DOI competition, HEK293 cell membranes; read-out: DOI Binding 5HT2A. The protocol: as §1, §2
T2 sequence (P28223 whole entry): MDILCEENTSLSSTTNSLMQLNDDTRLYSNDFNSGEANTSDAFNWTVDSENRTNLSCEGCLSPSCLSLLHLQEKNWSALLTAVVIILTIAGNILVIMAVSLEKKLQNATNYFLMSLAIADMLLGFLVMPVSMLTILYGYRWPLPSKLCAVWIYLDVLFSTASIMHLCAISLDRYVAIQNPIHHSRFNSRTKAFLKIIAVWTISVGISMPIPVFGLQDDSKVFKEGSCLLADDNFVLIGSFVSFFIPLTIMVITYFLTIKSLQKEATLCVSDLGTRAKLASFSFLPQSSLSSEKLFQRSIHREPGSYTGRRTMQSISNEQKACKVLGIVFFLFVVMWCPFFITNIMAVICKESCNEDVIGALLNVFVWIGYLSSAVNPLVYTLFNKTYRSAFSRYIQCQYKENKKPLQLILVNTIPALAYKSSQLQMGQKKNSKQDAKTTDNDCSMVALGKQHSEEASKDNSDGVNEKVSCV
The target of test [3] is T3, 5-HT2C receptor (Homo sapiens (Human), UniProt P28335). The test is described as follows: DOI radioligand binding assay, 5-HT2C. Here is the method: as §1, §2
T3 sequence (P28335 33-458): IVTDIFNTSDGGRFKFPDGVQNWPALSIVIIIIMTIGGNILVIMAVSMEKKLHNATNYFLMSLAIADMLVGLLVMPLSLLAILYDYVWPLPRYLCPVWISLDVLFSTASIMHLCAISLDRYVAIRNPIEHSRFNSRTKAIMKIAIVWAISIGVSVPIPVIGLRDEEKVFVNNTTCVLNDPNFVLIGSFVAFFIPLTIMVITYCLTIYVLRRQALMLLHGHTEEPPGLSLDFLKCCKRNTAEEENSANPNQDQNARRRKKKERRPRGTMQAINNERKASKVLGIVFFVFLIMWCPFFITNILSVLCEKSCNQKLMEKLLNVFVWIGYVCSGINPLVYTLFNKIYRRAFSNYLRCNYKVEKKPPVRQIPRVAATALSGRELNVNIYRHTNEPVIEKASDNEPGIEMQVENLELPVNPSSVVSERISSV
In test [4] the target is T3, 5-HT2C receptor. The test is described as follows: IP accumulation assay, 5-HT2C. Type of test: cell-based. The protocol:
(§3) HEK293 cells expressing recombinant 5-HT2 receptors were added to sterile poly-D-lysine-coated 96-well microtiter plates (35,000 cells/well) and labeled with 0.6 μCi/well of [^3H]inositol in myoinositol-free DMEM for 18 h. Unincorporated [^3H]inositol was removed by aspiration and replaced with fresh myoinositol-free DMEM supplemented with LiCl (10 mM final) and pargyline (10 μM final). Serially diluted test compounds were then added and incubation was conducted for 2 h at 37° C. (5-HT2B, and 5-HT2A) and RT (5-HT2C). Incubations were then terminated by lysing cells with the addition of ice-cold 0.1 M formic acid followed by freezing at −80° C. After thawing, total [^3H]inositol phosphates were resolved from [^3H]inositol using AG1-X8 ion exchange resin (Bio-Rad) and [^3H]inositol phosphates were measured by scintillation counting using a Perkin Elmer TopCount® scintillation counter. All EC50 determinations were performed using 10 different concentrations and triplicate determinations were made at each test concentration.

The target of test [5] is T1, 5-HT2B receptor. The test is described as follows: IP accumulation assay, 5-HT2B. Type of test: cell-based. Here is the method: as §3
The target in test [6] is T2, 5-HT2A receptor. The test is described as follows: IP accumulation assay, 5-HT2A. Type of test: cell-based. Here is the method:
as §3

A short description of test [7]: Food intake in the male Sprague Dawley rat. The following applies: PO 1, 2 or 5 mg/kg, 1 hour following administration, relative to placebo. Type of test: in vivo. The protocol: Male Sprague Dawley rats (225-300 g) were housed three per cage in a temperature and humidity controlled environment (12 h:12 h light:dark cycle, lights on at 0600 h). At 1600 h on the day before the test, rats were placed in fresh cages and food was removed. On test day, rats were placed into individual cages with grid floors at 1000 h with no access to food. At 1130 h, rats (n=8) were administered either vehicle (20% hydroxypropyl-β-cyclodextrin) or test compound via oral gavage (PO, 1 mL/kg, with an amount of 1 mg/kg, 2 mg/kg or 5 mg/kg of test compound) 30 min prior to food presentation. Food intake was measured at 60 min after drug administration (30 min after food presentation).

T1 sequence (P41595 whole entry): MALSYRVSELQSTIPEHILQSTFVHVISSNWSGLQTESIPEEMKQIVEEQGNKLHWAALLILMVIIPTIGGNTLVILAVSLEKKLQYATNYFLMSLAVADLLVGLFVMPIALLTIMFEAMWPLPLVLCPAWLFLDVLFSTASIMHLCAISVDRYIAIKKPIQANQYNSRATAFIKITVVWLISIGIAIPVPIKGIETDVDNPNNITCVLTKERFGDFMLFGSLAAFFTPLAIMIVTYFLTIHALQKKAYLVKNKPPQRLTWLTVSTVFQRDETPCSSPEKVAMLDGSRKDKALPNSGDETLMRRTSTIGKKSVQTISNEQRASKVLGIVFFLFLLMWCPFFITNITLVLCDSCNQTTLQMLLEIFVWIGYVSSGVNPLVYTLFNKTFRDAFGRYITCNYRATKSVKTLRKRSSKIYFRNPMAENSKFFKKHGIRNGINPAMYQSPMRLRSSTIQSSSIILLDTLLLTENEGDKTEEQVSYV

In the case of `COCCc1ccnc2c1CC[C@@H]1CNCCN21` [Compound 107, (R)-4-(2-methoxyethyl)-6,6a,7,8,9,10-hexahydro-5H-pyrazino[1,2-a][1,8]naphthyridine], the Ki came to 177 nM in test [1] and 99.5 nM in test [2].
One may read the EC50 as the midpoint of the concentration-response curve. A low value points to higher potency in that assay. With `CC(C)Cc1ccnc2c1CC[C@@H]1CNCCN21` [Compound 114, (R)-4-isobutyl-6,6a,7,8,9,10-hexahydro-5H-pyrazino[1,2-a][1,8]naphthyridine], the Ki in test [3] stood at 0.587 nM; in test [1] it was 33 nM. For the same compound, the EC50 in test [4] turned out to be 0.424 nM; in test [5], 351 nM.
Turning to `Fc1ccccc1Cc1ccnc2c1CC[C@@H]1CNCCN21` [Compound 116, (R)-4-(2-fluorobenzyl)-6,6a,7,8,9,10-hexahydro-5H-pyrazino[1,2-a][1,8]naphthyridine], the Ki in test [3] is 0.304 nM; in test [2], 2.65 nM. Further, the results for the EC50 in test [4] and in test [6] were 0.314 nM and 152 nM, respectively.
Take `c1csc(-c2ccnc3c2CC[C@@H]2CNCCN32)c1` [Compound 126, (R)-4-(thiophen-2-yl)-6,6a,7,8,9,10-hexahydro-5H-pyrazino[1,2-a][1,8]naphthyridine]: the Ki is 122 nM in test [1] and 68.8 nM in test [2].
Regarding `c1cc(CC2CCCCO2)c2c(n1)N1CCNC[C@H]1CC2` (stereo partly drawn) [Compound 132, (6aR)-4-((tetrahydro-2H-pyran-2-yl)methyl)-6,6a,7,8,9,10-hexahydro-5H-pyrazino[1,2-a][1,8]naphthyridine], the figures for the Ki in test [1] and in test [2] were 1090 nM and 212 nM, respectively.
With `c1cc(COCC2CCOCC2)c2c(n1)N1CCNC[C@H]1CC2` [Compound 133, (R)-4-(((tetrahydro-2H-pyran-4-yl)methoxy)methyl)-6,6a,7,8,9,10-hexahydro-5H-pyrazino[1,2-a][1,8]naphthyridine], the Ki was determined as 1250 nM in test [3] (read-out: DOI Binding 5HT2C), 844 nM in test [1] and 1670 nM in test [2].
With `N#CCCc1ccnc2c1CC[C@@H]1CNCCN21` [Compound 142, (R)-3-(6,6a,7,8,9,10-hexahydro-5H-pyrazino[1,2-a][1,8]naphthyridin-4-yl)propanenitrile], the Ki in test [1] was 665 nM; in test [2] it was 840 nM.
The like results for `CC(C)OCc1ccnc2c1CC[C@@H]1CNCCN21` [Compound 145, (R)-4-(isopropoxymethyl)-6,6a,7,8,9,10-hexahydro-5H-pyrazino[1,2-a][1,8]naphthyridine] were, in that order, 209 nM and 222 nM.
Turning to `Clc1ccc(-c2ccnc3c2CC[C@@H]2CNCCN32)nc1` [Compound 146, (R)-4-(5-chloropyridin-2-yl)-6,6a,7,8,9,10-hexahydro-5H-pyrazino[1,2-a][1,8]naphthyridine], the Ki is 3110 nM in test [3] (read-out: DOI Binding 5HT2C), 1020 nM in test [1] and 5390 nM in test [2].
`FC(F)(F)CCc1ccnc2c1CC[C@@H]1CNCCN21` [Compound 152, (R)-4-(3,3,3-trifluoropropyl)-6,6a,7,8,9,10-hexahydro-5H-pyrazino[1,2-a][1,8]naphthyridine]: the cumulative food intake entry in test [7] is “significantly decreased”.
Regarding `Brc1ccnc2c1CC[C@@H]1CNCCCN21` [Compound 156, (R)-4-bromo-5,6,6a,7,8,9,10,11-octahydro-[1,4]diazepino[1,2-a][1,8]naphthyridine], the Ki turned out to be 127 nM in test [1] and 1390 nM in test [2].
The corresponding values for `FC(F)(F)CCc1ccnc2c1CC[C@@H]1CNCCCN21` [Compound 157, (R)-4-(3,3,3-trifluoropropyl)-5,6,6a,7,8,9,10,11-octahydro-[1,4]diazepino[1,2-a][1,8]naphthyridine] are 721 nM and 1140 nM.
`CSc1nc(Cl)c2c(n1)N1CCCNC[C@H]1CC2` [Compound 159, (R)-4-chloro-2-(methylthio)-5,6,6a,7,8,9,10,11-octahydropyrimido[5′,4′:5,6]pyrido[1,2-a][1,4]diazepine]: the figures for the Ki in test [3] (read-out: DOI Binding 5HT2C), in test [1] and in test [2] were 1600 nM, 272 nM and 12300 nM, respectively.
The corresponding values for `Clc1ncnc2c1CC[C@@H]1CNCCCN21` [Compound 160, (R)-4-chloro-5,6,6a,7,8,9,10,11-octahydropyrimido[5′,4′:5,6]pyrido[1,2-a][1,4]diazepine] are 5560 nM, 1830 nM and 100000 nM.
As for `CCc1c(CCC#N)cnc2c1CC[C@@H]1CNCCN21` [Compound 162, (R)-3-(4-ethyl-6,6a,7,8,9,10-hexahydro-5H-pyrazino[1,2-a][1,8]naphthyridin-3-yl)propanenitrile], the results for the Ki in test [1] and in test [2] were 251 nM and 1260 nM, respectively.
The corresponding values for `CN1CCN2c3nccc(CCC(F)(F)F)c3CC[C@@H]2C1` [Compound 168, (R)-8-methyl-4-(3,3,3-trifluoropropyl)-6,6a,7,8,9,10-hexahydro-5H-pyrazino[1,2-a][1,8]naphthyridine] are 331 nM and 58 nM.
The corresponding values for `Brc1cncc2c1CC[C@@H]1CNCCN21` [Compound 172, (R)-4-bromo-6,6a,7,8,9,10-hexahydro-5H-pyrazino[1,2-a][1,7]naphthyridine] are 13 nM and 72.3 nM.
For `c1ncc2c(c1CC1CCCCC1)CC[C@@H]1CNCCN21` [Compound 174, (R)-4-(cyclohexylmethyl)-6,6a,7,8,9,10-hexahydro-5H-pyrazino[1,2-a][1,7]naphthyridine], the figures for the Ki in test [1] and in test [2] were 140 nM and 107 nM, respectively.
Consider `c1ccc(Cc2cncc3c2CC[C@@H]2CNCCN32)cc1` [Compound 175, (R)-4-benzyl-6,6a,7,8,9,10-hexahydro-5H-pyrazino[1,2-a][1,7]naphthyridine], for which the Ki in test [3] stood at 0.52 nM; in test [1], 270 nM. The EC50 in test [4] is 0.622 nM; in test [5] it was 19900 nM.

The values are drawn from patent publication US10836764B2, “5-HT2C receptor agonists and compositions and methods of use” (Arena Pharmaceuticals, Inc., priority 2016, dated 2020).
